Our source for the melting point values is patent publication US6541468B1, “Indolocarbazole derivatives useful for the treatment of neurodegenerative diseases and cancer” (Bayer Corporation, priority 1998, dated 2003).

Molecules are shown by their SMILES.

On to `O=C1NC(=O)c2c1c1c3ccccc3n3c1c1c2c2ccccc2n1C1CC3[C@@H](O)[C@H]1O` [Example 1, 9,12-Methano-1H-diindolo[1,2,3-fg:3′,2′,1′-kl]pyrrolo[3,4-][1,6]benzodiazocine-1,3 (2H)-dione,9,10,11,12-tetrahydro-10,11-dihydroxy-(9α,10α,11α,12α)], for which the melting point is > 200 °C.

Turning to `O=C1NC(=O)c2c1c1c3ccccc3n3c1c1c2c2ccccc2n1C1CC3CC1=O` (centres unmarked) [Example 3, 9,12-Methano-1H-diindolo[1,2,3-fg:3′,2′,1′-kl]pyrrolo[3,4-I][1,6]benzodiazocine-1,3,10 (2H,9H)-trone, 11,12-dihydro], the melting point is > 230 °C.
